# Test results: ChEMBL document CHEMBL1135798, “Structure-activity relationships of the antimalarial agent artemisinin. 6. The development of predictive in vitro potency models using CoMFA and HQSAR methodologies” (2002)
# Test system: Plasmodium falciparum
# Experiment: Antimalarial activity against chloroquine-resistant, mefloquine-sensitive Plasmodium falciparum W2
# Format: functional
row,Structure (SMILES),Log RA
1,CCCC[C@H]1C(=O)OC2OC(C)(C)OO[C@@]23CCCCC13 (some centres undefined),-1.13
2,CCC(=O)OCC(CC)(CC)OOC(C)(C)C,-4
3,CO[C@H]1OC2(C)CC[C@H]3CCC[C@@H](CCOCc4ccc(F)cc4)C31OO2 (some centres undefined),0.38
4,CC(C)CCC[C@H]1C(=O)O[C@@H]2O[C@@]3(C)CC[C@H]4[C@H](C)CC[C@@H]1[C@@]24OO3,-0.04
5,C[C@@H]1CC[C@H]2[C@@H](CCCc3ccc(Cl)cc3)C(=O)O[C@@H]3O[C@@]4(C)CC[C@@H]1[C@]32OO4,1.37
6,CCC[C@H]1CO[C@@H]2O[C@@]3(C)CC[C@H]4[C@H](C)CC[C@@H]1[C@@]24OO3,0.74
7,CCCC[C@H]1C(O)O[C@@H]2O[C@@]3(C)CC[C@H]4[C@H](C)CC[C@@H]1[C@@]24OO3 (some centres undefined),0.96
8,CO[C@H]1O[C@@]2(C)CC[C@H]3CCC[C@@H](CCOCc4ccccn4)[C@]31OO2,0.17
9,CCOC1O[C@@H]2O[C@@]3(C)CC[C@H]4[C@H](C)CC[C@@H]([C@H]1C)[C@@]24OO3 (some centres undefined),0.34
10,C[C@@H]1CC[C@H]2[C@H](C)C(=O)O[C@@H]3O[C@@]4(C)CC[C@@H]1[C@]32OO4,-0.17
11,CC1O[C@@H]2O[C@@]3(C)CC[C@H]4[C@H](C)CC[C@@H]1[C@@]24OO3 (some centres undefined),-0.64
12,CC1CO[C@@H]2O[C@@]3(C)CC[C@H]4[C@H](C)CC[C@@H]1[C@@]24OO3 (some centres undefined),-0.79
13,CO[C@H]1O[C@]2(C)OO[C@]13[C@H](CCO)CCC[C@@H]3C[C@@H]2C,0.23
14,C[C@@H]1CCC2[C@@H](C)COC3OC4(CCCC4)OO[C@@]32C1 (some centres undefined),-0.26
15,C[C@@H]1CCC2[C@@H](C)COC3OC(C)(C)OO[C@@]32C1 (some centres undefined),-0.8
16,CO[C@@]1(C)CC[C@H]2[C@H](C)CCC[C@]2(C=O)OO1,-4
17,c1ccc([C@@]23CCC[C@](c4ccccc4)(CC2)OO3)cc1,-0.91
18,C[C@H]1C(=O)OC2OC(C)(C)OO[C@@]23CCCCC13 (some centres undefined),-1.27
19,C[C@H]1[C@@H](O[C@@H](CC(=O)O)c2ccc([N+](=O)[O-])cc2)O[C@@H]2O[C@@]3(C)CC[C@H]4[C@H](C)CC[C@@H]1[C@@]24OO3,0.1
20,C[C@@H]1CC[C@H]2[C@@H](CCc3ccccc3)C(=O)O[C@@H]3O[C@@]4(C)CC[C@@H]1[C@]32O4,-4

row,Structure (SMILES),Log RA
1,CCO[C@H]1O[C@@H]2O[C@@]3(C)CC[C@H]4C(C)C(F)(F)C[C@@H]([C@H]1C)[C@@]24OO3 (some centres undefined),0.19
2,CCO[C@H]1O[C@@H]2O[C@@]3(C)CC[C@H]4C(C(F)F)CC[C@@H]([C@H]1C)[C@@]24OO3 (some centres undefined),0.41
3,C[C@@H]1CC[C@H]2C(=O)C(=O)O[C@@H]3O[C@@]4(C)CC[C@@H]1[C@]32OO4,-2.47
4,CC(C)C[C@H]1C(=O)O[C@@H]2O[C@@]3(C)CC[C@H]4[C@H](C)CC[C@@H]1[C@@]24OO3,-0.55
5,C[C@@H]1CC[C@@H]2[C@]34OO[C@](C)(CC[C@@H]13)O[C@H]4OC(Nc1ncccn1)[C@@]2(C)Br (some centres undefined),-0.77
6,C[C@@H]1CC[C@@H]2[C@]34OO[C@](C)(CC[C@@H]13)O[C@H]4OC(Nc1cccc(F)c1)[C@@]2(C)Br (some centres undefined),0.79
7,CO[C@H]1O[C@@]2(C)CC[C@H]3CCC[C@@H](CCOC(=O)c4ccc(C(=O)OCCN(C)C)cc4)[C@]31OO2,-0.6
8,CO[C@H]1O[C@@]2(C)CC[C@H]3CCC[C@@H](CCOC(=O)c4ccccc4)[C@]31OO2,-0.59
9,CO[C@@H]1O[C@@]2(C)CC[C@H]3CCC[C@@H](CCOC(=O)N(c4ccccc4)c4ccccc4)[C@]31OO2,1.06
10,C[C@@H]1CC[C@@H]2[C@]34OO[C@](C)(CC[C@@H]13)O[C@H]4OC(OCC(F)(F)F)[C@@]2(C)O (some centres undefined),0.29
11,CCOP(=O)(OCC)OCC[C@@H]1CCC[C@@H]2CC[C@@]3(C)OO[C@]21[C@@H](OC)O3,0.37
12,COC(=O)CCOC1O[C@@H]2O[C@@]3(C)CC[C@H]4[C@H](C)CC[C@@H]([C@H]1C)[C@@]24OO3 (some centres undefined),0.1
13,C[C@@H]1CCC[C@]23OO[C@](C)(CC[C@@H]12)O[C@H]3OC(=O)Cc1ccccc1,-0.51
14,C[C@@H]1CC[C@H]2[C@H]3CCCO[C@H]3O[C@@H]3O[C@@]4(C)CC[C@@H]1[C@]32OO4,0.23
15,C[C@@H]1CC[C@@H]2[C@]34OO[C@](C)(CC[C@@H]13)O[C@H]4OC(=O)[C@@]2(O)CO,-4
16,C[C@@H]1CC[C@@H]2[C@]34OO[C@](C)(CC[C@@H]13)O[C@H]4OC(=O)[C@@]2(Br)CBr,-1.64
17,C[C@@H]1CC[C@H]2[C@@H](C)C(=O)N(CC=O)[C@@H]3O[C@@]4(C)CC[C@@H]1[C@@]23OO4,1.47
18,C/C=C\C[C@@H]1C(=O)O[C@@H]2O[C@@]3(C)CC[C@H]4[C@H](C)CC[C@@H]1[C@@]24OO3,-1.1
19,C[C@@H]1CC[C@H]2CC(=O)N(CCCc3ccccc3)[C@@H]3O[C@@]4(C)CC[C@@H]1[C@@]23OO4,0.02
20,CCCCC1O[C@@H]2O[C@@]3(C)CC[C@H]4[C@H](C)CC[C@@H]([C@H]1C)[C@@]24OO3 (some centres undefined),0.06

row,Structure (SMILES),Log RA
1,C[C@@H]1CC[C@@H]2[C@]34OO[C@](C)(CC[C@@H]13)O[C@H]4OC(OCC(F)(F)F)[C@]2(C)O (some centres undefined),-0.7
2,CC(C)CN1C(=O)[C@H](C)[C@@H]2CC[C@@H](C)[C@@H]3CC[C@@]4(C)OO[C@]32[C@H]1O4,1.03
3,COC(=O)C[C@H](C)OC1O[C@@H]2O[C@@]3(C)CC[C@H]4[C@H](C)CC[C@@H]([C@H]1C)[C@@]24OO3 (some centres undefined),0.87
4,CCCC[C@H]1CO[C@@H]2O[C@@]3(C)CC[C@H]4[C@H](C)CC[C@@H]1[C@@]24O3,-4
5,CCOC(=O)C[C@@H](O[C@H]1O[C@@H]2O[C@@]3(C)CC[C@H]4[C@H](C)CC[C@@H]([C@H]1C)[C@@]24OO3)c1ccc([N+](=O)[O-])cc1,0.9
6,CC(=O)Oc1ccc([C@H](C)O[C@H]2O[C@@H]3O[C@@]4(C)CC[C@H]5[C@H](C)CC[C@@H]([C@H]2C)[C@@]35OO4)cc1,0.68
7,CCOC(=O)C[C@H](O[C@H]1O[C@@H]2O[C@@]3(C)CC[C@H]4[C@H](C)CC[C@@H]([C@H]1C)[C@@]24OO3)c1ccc([N+](=O)[O-])cc1,1.57
8,CCOC(=O)C[C@@H](O[C@H]1O[C@@H]2O[C@@]3(C)CC[C@H]4[C@H](C)CC[C@@H]([C@H]1C)[C@@]24OO3)c1ccccc1,1.07
9,C[C@@H]1CC[C@H]2CCO[C@@H]3O[C@@]4(CCCc5ccc(Cl)cc5)CC[C@@H]1[C@@]23OO4,-0.55
10,C[C@@H]1CC[C@H]2[C@@H](CCCc3ccccc3)CO[C@@H]3O[C@@]4(C)CC[C@@H]1[C@]32OO4,1.4
11,CC[C@H]1CO[C@@H]2O[C@@]3(C)CC[C@H]4[C@H](C)CC[C@@H]1[C@@]24OO3,0.67
12,C[C@]12CC[C@H]3CCCC[C@@]3(OO1)[C@H](OCc1ccccc1)O2,-0.09
13,CC[C@@]12CC[C@H]3[C@H](C)CC[C@H]4CCO[C@H](O1)[C@]43OO2,-1
14,CCO[C@H]1O[C@@H]2O[C@@]3(C)CC[C@H]4[C@H](C)CC[C@@H]([C@H]1C)[C@@]24O3,-4
15,CO[C@H]1O[C@@]2(C)CC[C@H]3CCC[C@@H](CCOCc4ccncc4)[C@]31OO2,0.14
16,C[C@@H]1CC[C@H]2[C@@H](C)C(=O)O[C@@H]3O[C@@]4(C)CC[C@@H]1[C@]32OO4 [ARTEMISININ],0
17,C=C1C(=O)O[C@@H]2O[C@@]3(C)CC[C@H]4[C@H](C)CC[C@@H]1[C@@]24OO3 [ARTEMISITENE],-0.89
18,C[C@H]1[C@@H](O)O[C@@H]2O[C@@]3(C)CC[C@H]4[C@H](C)CC[C@@H]1[C@@]24OO3 [ARTENIMOL],0.55
19,C[C@@H]1CC[C@H]2[C@@H](C)C(=O)O[C@@H]3O[C@@]4(C)CC[C@@H]1[C@]32O4 [DEOXYARTEMISININ],-4
